Source: paper PMC5557901, “Cell surface binding, uptaking and anticancer activity of L-K6, a lysine/leucine-rich peptide, on human breast cancer MCF-7 cells” (Scientific Reports, 2017)
Where two headings read alike, the source gives them in different places. Peptide text beside a SMILES is read from it.

Tests used:
Format in all cases: cell-based, human
[1] = test system: various cancer cell lines; assay: MTT cytotoxicity assay, various cancer cell lines; conditions: Fig. 1a
From the text: Eleven human cancer cell lines (including MCF-7 breast carcinoma, Bcap-37 breast carcinoma, MDA-MB-231 breast adenocarcinoma, HeLa cervical carcinoma, BGC-823 gastric carcinoma, A375 melanoma, NCI-H446 small cell lung carcinoma, HO-8910 ovarian carcinoma, SMMC-7721 hepatocellular carcinoma, LK-2 lung squamous cells carcinoma, and BEL-7402 hepatocellular carcinoma) were obtained from the CBCAS (Cell Bank of the Chinese Academy of Sciences, Shanghai, China). Human HaCaT keratinocytes were obtained from KeyGEN Biotech (Nanjing, China). Cells were routinely cultured in RPMI 1640 or L15 or DMEM containing 10% neonatal bovine serum (NBS) or fetal bovine serum (FBS), 1% l-glutamine, 1% sodium pyruvate, 50 U/mL penicillin and 50 μg/mL streptomycin. The cells were maintained at 37 °C in a humidified atmosphere of 5% CO2.
Cell viability was detected by MTT assay. The cells were seeded at 5 × 10^3 cells/well in 96-well plates 24 h before the peptide treatment. After 1, 6, 24, or 48 h of incubation with various concentrations of peptides (20–100 µM), 10 μL of the 5 mg/mL MTT solution was added to each well and incubated for additional 4 h. The purple-blue MTT formazan precipitate was dissolved in 150 μL of DMSO. The absorbance was determined using a microplate reader at 490 nm. […] The data were expressed as a percentage of the inhibition rate for the viable cells. […]

[2] = test system: HaCaT cells; assay: Cellular uptake by confocal microscopy, HaCaT cells; conditions: FITC-labeled L-K6, confocal microscopy, 1-hour exposure
Protocol: (§1) MCF-7 or HaCaT cells were incubated with various concentrations of FITC-labeled L-K6 for 5, 10 or 60 min. Myelin and other lipophilic areas on cell membrane were stained with the red-orange fluorescent tracker DiI. The FITC-labeled peptides were traced and recorded at each time point using confocal microscopy.

[3] = test system: MCF-7 cells
Protocol: (§2) Cell viability was detected by MTT assay. The cells were seeded at 5 × 10^3 cells/well in 96-well plates 24 h before the peptide treatment. After 1, 6, 24, or 48 h of incubation with various concentrations of peptides (20–100 µM), 10 μL of the 5 mg/mL MTT solution was added to each well and incubated for additional 4 h. The purple-blue MTT formazan precipitate was dissolved in 150 μL of DMSO. The absorbance was determined using a microplate reader at 490 nm. The experiments were performed in triplicate. The data were expressed as a percentage of the inhibition rate for the viable cells. For the thermo-sensitivity test, MCF-7 cells were treated with L-K6 at 4 °C or 37 °C for 30 min and then subjected to the MTT assay. For energy-dependent assay, the L-K6-treated MCF-7 cells were pre-incubated with 40 μM NaN3 for 30 min[39] and then subjected to the MTT assay. All experiments had been performed in triplicate.

[4] = test system: HaCaT cells; assay: MTT cytotoxicity assay, non-cancerous HaCaT cells; conditions: 1-hour peptide exposure
Protocol: as §2

[5] = test system: MCF-7 cells; assay: Cellular uptake by confocal microscopy, MCF-7 cells; conditions: FITC-labeled L-K6, confocal microscopy, after 5 min of peptide exposure
Protocol: as §1

SMILES	Cytotoxicity on cancer cell lines relative to L-K6 (MTT) [1]	Cellular uptake into HaCaT cells [2]	IC50 ([3]; 1 h) [µM]	IC50 ([3]; 6 h) [µM]	IC50 ([3]; 24 h) [µM]	IC50 ([3]; 48 h) [µM]	Toxicity against normal HaCaT cells (MTT) [4]	Cellular uptake into MCF-7 cells [5]
CC[C@H](C)[C@H](N)C(=O)N[C@@H](CCCCN)C(=O)N[C@@H](CCCCN)C(=O)N[C@H](C(=O)N[C@H](C(=O)N[C@@H](CO)C(=O)N[C@@H](CCCCN)C(=O)N[C@H](C(=O)N[C@@H](CCCCN)C(=O)N[C@@H](CCCCN)C(=O)N[C@@H](CC(C)C)C(=O)N[C@@H](CC(C)C)C(N)=O)[C@@H](C)CC)C(C)C)[C@@H](C)CC [L-K5 V1] (H-IKKIVSKIKKLL-NH2)	dramatically weakened this cytotoxicity							
CC[C@H](C)[C@H](N)C(=O)N[C@@H](CCCCN)C(=O)N[C@@H](CCCCN)C(=O)N[C@H](C(=O)N[C@H](C(=O)N[C@@H](CO)C(=O)N[C@@H](CCCCN)C(=O)N[C@H](C(=O)N[C@@H](CCCCN)C(=O)N[C@@H](CCCCN)C(=O)N[C@@H](CC(C)C)C(=O)N[C@@H](CC(C)C)C(=O)N[C@@H](CCCCN)C(N)=O)[C@@H](C)CC)C(C)C)[C@@H](C)CC [L-K6 V1] (H-IKKIVSKIKKLLK-NH2)	dramatically weakened this cytotoxicity							
CC[C@H](C)[C@H](N)C(=O)N[C@@H](CCCCN)C(=O)N[C@@H](CCCCN)C(=O)N[C@H](C(=O)N[C@@H](CC(C)C)C(=O)N[C@@H](CO)C(=O)N[C@@H](CCCCN)C(=O)N[C@H](C(=O)N[C@@H](CCCCN)C(=O)N[C@@H](CCCCN)C(=O)N[C@@H](CC(C)C)C(=O)N[C@@H](CC(C)C)C(=O)N[C@@H](CCCCN)C(N)=O)[C@@H](C)CC)[C@@H](C)CC [L-K6] (H-IKKILSKIKKLLK-NH2)		negligible cellular uptake	38	34	31	23	minimum toxicity	rapidly internalize into cells
